Experiment [1] addresses T1, Fatty acid synthase (Homo sapiens, UniProt P49327). Description: FAS thioesterase domain inhibitors, dose response, biochemical, kinetic fluorescence intensity (AID 624326).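 Note: rate of fluorescence rise from hydrolysis of a fluorogenic O-methyl fluorescein ester substrate.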 It counts as functional.
Experiment [2] concerns the target T1, Fatty acid synthase. Nature of the experiment: FAS thioesterase domain inhibitors, dose response, biochemical, endpoint fluorescence intensity, uHTS hits (AID 624327).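 Note: fluorescence from hydrolysis of an O-methyl fluorescein acyl ester substrate by the enzyme.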 It counts as functional.
In experiment [3] the target is T2, Corticotropin-releasing factor receptor 2/Corticotropin-releasing factor-binding protein (Homo sapiens, UniProt P24387+Q13324).
T2 sequence (Q13324 whole entry): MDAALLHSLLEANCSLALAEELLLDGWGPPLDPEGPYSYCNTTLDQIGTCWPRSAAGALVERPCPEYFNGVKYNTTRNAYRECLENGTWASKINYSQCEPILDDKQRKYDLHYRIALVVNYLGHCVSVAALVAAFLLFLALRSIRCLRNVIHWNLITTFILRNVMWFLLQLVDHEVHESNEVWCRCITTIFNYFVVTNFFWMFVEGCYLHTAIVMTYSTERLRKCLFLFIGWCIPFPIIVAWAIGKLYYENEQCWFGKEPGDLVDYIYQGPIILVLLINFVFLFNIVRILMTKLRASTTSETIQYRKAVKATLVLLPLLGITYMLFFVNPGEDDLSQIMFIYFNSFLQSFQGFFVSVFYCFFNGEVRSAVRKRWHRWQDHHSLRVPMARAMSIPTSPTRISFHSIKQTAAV
T2 sequence (P24387 whole entry): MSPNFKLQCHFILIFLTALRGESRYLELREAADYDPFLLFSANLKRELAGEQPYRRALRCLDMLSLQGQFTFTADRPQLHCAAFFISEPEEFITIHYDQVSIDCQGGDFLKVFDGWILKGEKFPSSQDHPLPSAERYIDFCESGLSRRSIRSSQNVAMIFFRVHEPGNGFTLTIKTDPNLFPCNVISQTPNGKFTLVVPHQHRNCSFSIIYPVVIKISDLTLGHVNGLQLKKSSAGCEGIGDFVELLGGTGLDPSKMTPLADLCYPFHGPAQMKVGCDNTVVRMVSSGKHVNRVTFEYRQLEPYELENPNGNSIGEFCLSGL
Description: activators of CRF receptor 2 with binding protein – uHTS hits, confirmation (AID 602473). In kind it is functional. To be noted: read-out: EC50_Mean.

The target of experiment [4] is T3, Zinc finger protein mex-5 (Caenorhabditis elegans, UniProt Q9XUB2).
T3 sequence (Q9XUB2 whole entry): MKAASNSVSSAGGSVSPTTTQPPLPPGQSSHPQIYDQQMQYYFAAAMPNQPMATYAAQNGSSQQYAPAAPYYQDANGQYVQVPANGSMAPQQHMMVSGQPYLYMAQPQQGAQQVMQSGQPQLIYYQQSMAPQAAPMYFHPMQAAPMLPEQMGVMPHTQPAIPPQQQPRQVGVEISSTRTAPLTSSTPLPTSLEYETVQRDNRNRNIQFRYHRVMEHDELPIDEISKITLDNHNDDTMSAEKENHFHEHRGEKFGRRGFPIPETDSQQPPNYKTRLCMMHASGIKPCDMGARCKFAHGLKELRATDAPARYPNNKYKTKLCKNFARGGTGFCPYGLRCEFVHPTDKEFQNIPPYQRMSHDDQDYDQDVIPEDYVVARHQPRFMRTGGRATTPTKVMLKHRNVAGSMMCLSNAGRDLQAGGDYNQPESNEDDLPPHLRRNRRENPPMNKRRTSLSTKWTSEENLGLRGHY
Description: MEX-5/TCR-2 RNA interaction inhibitors, dose response, biochemical, C. elegans, fluorescence polarization (AID 1960). In general terms: In fluorescence polarisation assays a small probe gives low polarisation when free and higher when bound to something large.

Experiment [5] has as its target T4, Endoribonuclease toxin MazF (Escherichia coli K-12, UniProt P0AE70).
T4 sequence (P0AE70 whole entry): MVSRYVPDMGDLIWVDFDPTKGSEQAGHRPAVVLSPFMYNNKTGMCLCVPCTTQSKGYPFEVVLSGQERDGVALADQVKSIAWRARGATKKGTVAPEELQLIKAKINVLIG
Nature of the experiment: MazF toxin RNase activators, dose response, biochemical, fluorescence, single-stranded RNA substrate, uHTS hits (AID 588481). It counts as functional.

In experiment [6] the target is T4, Endoribonuclease toxin MazF. Nature of the experiment: fluorescent RNA oligo signal without MazF, dose response, counter-screen for MazEF activator project, biochemical, fluorescence, single-stranded RNase substrate (AID 588502). In kind it is functional. (In general: Counterscreens check selectivity or assay interference.)
In experiment [7] the target is T5, RNA-binding protein pos-1 (Caenorhabditis elegans, UniProt G5EF15).
T5 sequence (G5EF15 whole entry): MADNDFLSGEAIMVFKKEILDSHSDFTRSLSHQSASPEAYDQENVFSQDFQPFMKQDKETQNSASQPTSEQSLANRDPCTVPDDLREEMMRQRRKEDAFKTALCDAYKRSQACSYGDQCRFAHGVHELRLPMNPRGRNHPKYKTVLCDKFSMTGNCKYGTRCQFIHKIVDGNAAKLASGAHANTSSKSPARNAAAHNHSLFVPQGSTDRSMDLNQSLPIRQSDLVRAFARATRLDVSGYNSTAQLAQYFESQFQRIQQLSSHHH
Nature of the experiment: inhibitors of POS-1/mex-3 RNA binding, dose response, biochemical, fluorescence polarization (AID 1964).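 Note: purified POS-1 fused to maltose binding protein made in E. coli; potency of compounds blocking POS-1 binding to fluorescent RNA.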

Experiment [8] in a line: microbe, parasite or virus in culture. In kind it is functional. The conditions noted are these: Mycobacterium tuberculosis.
In experiment [9] the target is T6, Apoptotic protease-activating factor 1 (Homo sapiens, UniProt O14727).
T6 sequence (O14727 whole entry): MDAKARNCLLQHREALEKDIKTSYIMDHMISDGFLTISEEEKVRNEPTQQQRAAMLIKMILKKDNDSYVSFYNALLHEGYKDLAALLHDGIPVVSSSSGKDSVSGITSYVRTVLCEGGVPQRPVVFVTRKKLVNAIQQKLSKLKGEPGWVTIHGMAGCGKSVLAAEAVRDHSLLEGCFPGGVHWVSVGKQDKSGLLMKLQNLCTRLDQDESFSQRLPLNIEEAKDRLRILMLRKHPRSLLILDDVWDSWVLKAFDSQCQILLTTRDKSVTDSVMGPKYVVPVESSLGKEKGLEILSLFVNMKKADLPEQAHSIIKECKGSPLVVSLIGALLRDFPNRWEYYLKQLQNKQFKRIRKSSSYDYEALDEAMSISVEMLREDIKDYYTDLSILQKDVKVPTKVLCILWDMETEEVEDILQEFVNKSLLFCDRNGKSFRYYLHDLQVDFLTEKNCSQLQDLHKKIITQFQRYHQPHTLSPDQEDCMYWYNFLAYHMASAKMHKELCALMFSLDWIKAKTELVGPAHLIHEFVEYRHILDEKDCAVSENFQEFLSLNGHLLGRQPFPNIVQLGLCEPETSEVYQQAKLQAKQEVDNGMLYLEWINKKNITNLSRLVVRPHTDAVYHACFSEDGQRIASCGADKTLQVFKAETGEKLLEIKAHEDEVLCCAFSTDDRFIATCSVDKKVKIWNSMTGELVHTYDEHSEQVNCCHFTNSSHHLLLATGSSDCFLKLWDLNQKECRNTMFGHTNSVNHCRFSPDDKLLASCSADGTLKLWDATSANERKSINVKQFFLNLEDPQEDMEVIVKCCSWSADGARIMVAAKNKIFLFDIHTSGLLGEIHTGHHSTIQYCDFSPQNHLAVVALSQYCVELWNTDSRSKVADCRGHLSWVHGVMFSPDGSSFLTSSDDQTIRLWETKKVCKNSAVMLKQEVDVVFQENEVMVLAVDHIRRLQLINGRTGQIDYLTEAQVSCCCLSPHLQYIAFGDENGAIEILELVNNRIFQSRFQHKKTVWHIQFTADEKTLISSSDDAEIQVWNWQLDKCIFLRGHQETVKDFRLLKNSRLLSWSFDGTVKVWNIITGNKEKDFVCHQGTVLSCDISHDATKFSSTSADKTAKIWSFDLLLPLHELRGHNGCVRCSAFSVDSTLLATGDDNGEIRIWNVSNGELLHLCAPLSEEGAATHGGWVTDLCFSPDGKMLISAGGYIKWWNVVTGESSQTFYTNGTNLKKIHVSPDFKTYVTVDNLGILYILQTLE
In kind it is functional.

Experiment [10] addresses T7, Ubiquitin-conjugating enzyme E2 N (Homo sapiens, UniProt P61088).
T7 sequence (P61088 whole entry): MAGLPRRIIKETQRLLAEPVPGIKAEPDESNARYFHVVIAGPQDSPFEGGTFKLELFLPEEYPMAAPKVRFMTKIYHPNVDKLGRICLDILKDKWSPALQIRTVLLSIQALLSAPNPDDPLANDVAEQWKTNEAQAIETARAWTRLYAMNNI
In kind it is functional.

Experiment [11] in a line: inhibitors of firefly luciferase expression or activity, dose response, H4 neuroglioma cells, luminescence (AID 1990). In kind it is functional, cell-based.
Experiment [12] can be described thus: inhibitors of SNCA 5'UTR-driven reporter translation, confirmation, H4 neuroglioma cells, luminescence (AID 1988). It counts as functional, cell-based.
Experiment [13] in a line: Luminescence Cell-Based Dose Retest to Confirm Inhibitors of Cancer Stem Cells. [Related pubchem assays (depositor defined):AID2717, AID2721]. In kind it is functional. To be noted: Homo sapiens.
Experiment [14] can be described thus: Luminescence Cell-Based Dose Response HTS to Identify Inhibitors of 5'UTR Stem-Loop Driven Prion Protein mRNA Translation in H4 Neuroglioblastoma Cells. [Related pubchem assays: 1827 (Project Summary), 1813 (Primary HTS)]. It counts as functional.
Experiment [15] deals with INS1. Description: beta cell apoptosis inhibitors, cytokine rescue, dose response, luminescence, retest (AID 449756).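 Note: cell death triggered by IL-1 beta plus TNF-alpha plus IFN-gamma mixture; protective hits raise ATP signal compared with cytokine alone wells.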 To be noted: Rattus norvegicus. In kind it is functional, cell-based.
A short description of experiment [16]: growth suppression of beta-catenin-knockout colon cells, dose response, cell-based, HCT116, human colon tumor (AID 1045).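 Note: HCT116 colon tumor cells with beta catenin knocked out; cells exposed to compound for 60 hours.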 It counts as functional.
Experiment [17] in a line: growth suppression of PTEN-null colon cells, dose response, cell-based, HCT116 PTEN knockout (AID 1047).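 Note: HCT116 colon tumor cells with PTEN knocked out; cells exposed to compound for 60 hours before readout; potency for loss of cell viability measured by luminescence.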 In kind it is functional.
Experiment [18] has as its target Heat shock protein HSP 90-alpha (Homo sapiens, UniProt P07900). In kind it is functional, organism-based.
Experiment [19] can be described thus: LGR2 antagonists, dose response, cell-based, HEK293, CRE-luciferase reporter, cherry pick, set 2 (AID 743343).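 Note: transfected cells were stimulated with diluted bursicon conditioned medium after compound addition.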 In kind it is functional.
The nature of experiment [20]: non-specific cell cytotoxicity, dose response, cytotoxicity control for PAX8 inhibitor project, plate reader, dry powder samples (AID 743021). In kind it is functional, cell-based.
A short description of experiment [21]: MC4R antagonists, dose response, counter-screen for LGR2 antagonist project, cell-based, plate reader, cherry pick (AID 743444).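 Note: transfected HEK 293 cells stimulated with alpha-MSH peptide; potency of inhibitors of the alpha-MSH evoked signal.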 In kind it is functional.
Experiment [22] deals with Paired box protein Pax-8 (Homo sapiens, UniProt Q06710). Description: inhibitors of PAX8-driven TPO luciferase reporter, dose response, RMG-I cells, cherry-pick (AID 687027).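 Note: luciferase reporter driven by Pax8 target thyroperoxidase promoter measured by SteadyGlo luminescence.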 In kind it is functional, cell-based.

Calls of active or inactive are those of the source. Some results are limits rather than exact numbers.

T1 sequence (P49327 whole entry, the tested form may be a part): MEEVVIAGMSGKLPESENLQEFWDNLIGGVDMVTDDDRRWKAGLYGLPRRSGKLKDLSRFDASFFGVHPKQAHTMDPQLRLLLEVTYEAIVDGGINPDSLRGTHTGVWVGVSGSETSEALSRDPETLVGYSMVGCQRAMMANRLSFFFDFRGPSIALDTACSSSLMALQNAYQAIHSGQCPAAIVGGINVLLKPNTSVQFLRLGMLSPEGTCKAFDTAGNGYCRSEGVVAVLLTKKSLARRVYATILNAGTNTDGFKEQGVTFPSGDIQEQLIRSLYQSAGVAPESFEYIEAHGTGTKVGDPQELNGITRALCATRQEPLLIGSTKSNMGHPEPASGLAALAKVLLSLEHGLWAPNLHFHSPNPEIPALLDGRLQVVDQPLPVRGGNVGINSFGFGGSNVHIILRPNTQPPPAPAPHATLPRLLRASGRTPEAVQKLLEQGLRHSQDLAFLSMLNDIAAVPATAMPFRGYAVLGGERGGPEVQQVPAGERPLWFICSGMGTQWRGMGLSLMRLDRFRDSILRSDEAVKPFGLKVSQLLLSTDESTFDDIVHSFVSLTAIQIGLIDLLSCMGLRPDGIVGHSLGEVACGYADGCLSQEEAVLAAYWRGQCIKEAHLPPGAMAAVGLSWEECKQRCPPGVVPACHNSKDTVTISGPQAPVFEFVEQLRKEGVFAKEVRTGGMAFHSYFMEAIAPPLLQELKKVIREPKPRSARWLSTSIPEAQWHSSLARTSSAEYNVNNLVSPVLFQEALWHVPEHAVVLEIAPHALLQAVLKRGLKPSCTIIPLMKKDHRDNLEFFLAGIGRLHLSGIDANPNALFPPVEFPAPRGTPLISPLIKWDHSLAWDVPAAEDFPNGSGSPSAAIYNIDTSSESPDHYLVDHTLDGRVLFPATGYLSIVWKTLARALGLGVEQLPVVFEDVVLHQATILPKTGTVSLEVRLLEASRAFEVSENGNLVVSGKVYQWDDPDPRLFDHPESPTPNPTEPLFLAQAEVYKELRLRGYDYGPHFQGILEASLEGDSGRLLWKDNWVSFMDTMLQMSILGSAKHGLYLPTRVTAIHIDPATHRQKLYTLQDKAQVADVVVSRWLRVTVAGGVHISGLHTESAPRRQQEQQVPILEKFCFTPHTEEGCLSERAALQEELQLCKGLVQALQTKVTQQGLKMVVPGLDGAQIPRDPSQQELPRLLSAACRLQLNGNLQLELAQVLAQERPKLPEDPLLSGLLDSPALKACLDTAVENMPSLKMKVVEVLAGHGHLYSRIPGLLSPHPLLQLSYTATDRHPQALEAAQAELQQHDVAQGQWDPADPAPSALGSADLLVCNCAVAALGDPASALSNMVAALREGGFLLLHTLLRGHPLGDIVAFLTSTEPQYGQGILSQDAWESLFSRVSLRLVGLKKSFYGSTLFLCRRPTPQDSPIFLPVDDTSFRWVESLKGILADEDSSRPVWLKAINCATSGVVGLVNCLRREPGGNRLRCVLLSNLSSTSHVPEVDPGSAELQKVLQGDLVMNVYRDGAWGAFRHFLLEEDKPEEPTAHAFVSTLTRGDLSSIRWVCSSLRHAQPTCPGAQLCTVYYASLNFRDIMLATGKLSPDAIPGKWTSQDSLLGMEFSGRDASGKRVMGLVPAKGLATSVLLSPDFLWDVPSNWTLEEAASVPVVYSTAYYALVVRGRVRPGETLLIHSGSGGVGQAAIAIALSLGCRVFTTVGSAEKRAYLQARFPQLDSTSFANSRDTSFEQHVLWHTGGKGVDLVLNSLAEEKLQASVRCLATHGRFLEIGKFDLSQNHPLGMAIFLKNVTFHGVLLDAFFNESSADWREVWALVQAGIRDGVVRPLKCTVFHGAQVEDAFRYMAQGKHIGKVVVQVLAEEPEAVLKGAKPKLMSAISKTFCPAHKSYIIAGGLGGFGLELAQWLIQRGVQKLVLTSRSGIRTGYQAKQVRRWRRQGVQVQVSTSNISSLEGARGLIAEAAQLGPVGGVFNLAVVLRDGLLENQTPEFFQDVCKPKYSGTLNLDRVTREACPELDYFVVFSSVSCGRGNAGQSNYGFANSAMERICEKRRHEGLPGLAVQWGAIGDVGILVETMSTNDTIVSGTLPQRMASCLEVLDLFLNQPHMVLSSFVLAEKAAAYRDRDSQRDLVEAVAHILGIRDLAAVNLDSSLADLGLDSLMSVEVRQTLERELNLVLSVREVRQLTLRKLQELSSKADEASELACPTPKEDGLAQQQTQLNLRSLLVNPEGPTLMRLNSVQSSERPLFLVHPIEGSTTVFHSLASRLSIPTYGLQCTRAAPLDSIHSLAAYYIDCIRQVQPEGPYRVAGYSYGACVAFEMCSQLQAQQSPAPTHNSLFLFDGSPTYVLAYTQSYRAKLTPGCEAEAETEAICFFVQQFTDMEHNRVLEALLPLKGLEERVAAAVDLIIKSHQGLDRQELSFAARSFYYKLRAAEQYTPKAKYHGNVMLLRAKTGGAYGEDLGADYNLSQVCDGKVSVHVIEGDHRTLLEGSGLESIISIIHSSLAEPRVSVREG
Chain of Paired box protein Pax-8 (Q06710 whole entry): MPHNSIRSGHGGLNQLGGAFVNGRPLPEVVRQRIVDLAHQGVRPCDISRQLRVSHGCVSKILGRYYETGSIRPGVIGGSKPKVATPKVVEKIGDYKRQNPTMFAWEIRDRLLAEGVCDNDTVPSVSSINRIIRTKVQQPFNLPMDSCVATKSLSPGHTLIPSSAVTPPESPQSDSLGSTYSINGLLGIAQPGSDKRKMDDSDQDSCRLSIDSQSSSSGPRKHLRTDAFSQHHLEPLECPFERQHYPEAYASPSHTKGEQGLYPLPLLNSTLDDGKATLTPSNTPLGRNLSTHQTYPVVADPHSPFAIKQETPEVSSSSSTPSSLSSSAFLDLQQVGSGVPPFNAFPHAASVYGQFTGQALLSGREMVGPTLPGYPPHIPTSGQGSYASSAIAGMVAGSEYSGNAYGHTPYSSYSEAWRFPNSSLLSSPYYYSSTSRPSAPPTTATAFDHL

As for `CC(C)(C)OC(=O)CNC(=O)c1[nH]cnc1C(=O)N[C@@H](CCCCNC(=O)OC(C)(C)C)C(=O)OC(C)(C)C`, the IC50 in [1] was 0.364 µM (active); in experiment [2], 0.517 µM (active).

As to `COC(=O)Cn1cc(/C=C2\C(=O)NC(=O)N(c3ccc(OC)cc3)C2=O)c2ccccc21`, the EC50 in experiment [3] is 5.57 µM (active); in [4] it was 6.99 µM (active); in [5] it was > 99 µM (inactive); in experiment [6], 71.4 µM (inactive); in [7], 69.1 µM (active).

Turning to `O=C(CN1CCN(C(=O)COc2cccc(F)c2)CC1)Nc1ccc(Cl)c(C(F)(F)F)c1`, the CC50 in experiment [8] is > 40 µM (active).

In the case of `COc1ccc(CN2C(=O)NC(=O)/C(=C/c3ccc[nH]3)C2=O)cc1`, the EC50 in [5] and in experiment [6] was > 99 µM (inactive) throughout.

`CC(C)(C)c1ccc(OCCC(=O)OCC(=O)NCc2ccccc2)cc1`: the IC50 in experiment [1] is 6.7 µM (active); in experiment [2] it was 6.55 µM (active).

For the compound `COc1ccc(/C=C/c2cc(=O)c3cc(Cl)ccc3o2)cc1`, the EC50 is > 99 µM (inactive) in experiment [5] and 38 µM (inactive) in experiment [6].

Regarding `O=C(CCn1c2c(c3ccccc31)CCCC2)NNC(=O)c1ccc(Cl)c([N+](=O)[O-])c1`, the IC50 in experiment [9] is 0.798 µM (active).

On to `O=C(OCC(=O)N1CCc2ccccc2C1)c1ccc(Cl)c([N+](=O)[O-])c1`, for which the IC50 in experiment [1] is 2.41 µM (active); in [2], 5.45 µM (active).

As for `CCN1CCN(Cc2ccc(NC(=O)c3cc(NC(=O)c4cncc(-c5cccs5)c4)cc(OC)c3)cc2C(F)(F)F)CC1`, the IC50 in [10] was > 20 µM (inactive). Further, the EC50 in experiment [11] is > 120 µM (not active); in [12], > 120 µM (not active); in [14], 8.93 µM (active). Also, the AC50 in experiment [13] was 7.38 µM (active). Also, the CC50 in [8] was 8.62 µM (active).

For the compound `CCCCOc1ccc(C(=O)NCC(=O)NCC(c2cccs2)N2CCOCC2)cc1` (stereo unspecified), the IC50 in [9] was > 100 µM (inactive).

Turning to `Cc1cc(Br)ccc1NC(=O)C(C)c1ccc([N+](=O)[O-])cc1` (stereo unspecified), the IC50 in [1] is 18.8 µM (active); in [2], 31.9 µM (inactive).

With `O=[N+]([O-])c1ccc(NN=Cc2ccc3c(c2)OCO3)nc1`, the EC50 is 40.5 µM (inactive) in experiment [5] and > 99 µM (inactive) in experiment [6].

In the case of `Cn1c(SCC(=O)N/N=C/c2ccc([N+](=O)[O-])s2)nnc1-c1ccc(Cl)cc1`, the AC50 in experiment [15] is 9.33 µM (active); in experiment [18] it was 2.55 µM (active). Besides, the EC50 in [16] was 4.82 µM (active); in [17], 4.91 µM (active).

Take `Cc1ccc2nc(-c3ccc(Br)cc3)cn2c1`: the AC50 is 0.662 µM (active) in experiment [19], 24.6 µM (active) in [20], 0.704 µM (active) in experiment [21] and 11.2 µM (active) in experiment [22].

By IC50 is commonly meant the midpoint of a concentration-inhibition curve. What is called AC50 is the concentration giving half of the maximal activity seen.

For the origin of these results see ChEMBL document CHEMBL1201862, “PubChem BioAssay data set” (2004).
